Data: publication PMC9743095 (Journal of Medicinal Chemistry, 2022)
Where two headings read alike, the source gives them in different places.

Key:
Experiment in all cases: cells
Format in all cases: cell-based
[1] = tested on: BxPC-3; conditions: for MI%: BxPC-3, maximum inhibitory effect over concentration range; for CC50: Homo sapiens, BXPC-3, 72 h, read-out: LC50
Experimental: (§1) The assay was contracted and carried out by WuXi AppTec (Shanghai) Co., Ltd. The tumor cell lines CCRF-CEM, HL-60, KG-1, MOLT-4, K562, MV4-11, THP-1, HEL92.1.7, NCI-H929, RPMI-8226, Jurkat, Z138, RL, HS445, HepG2, MCF-7, Bx-PC-3, HT29, MIA PaCa-2, and SW620 were seeded at cell densities of […] 10^3 cells/well in a 96-well plate the day before drug incubation. Then, the plates were incubated for 72 h with the different concentrations of compound to be tested. After the incubation period, 50 μL of MTS was added and the tumor cells were incubated for 4 h at 37 °C. The data were read and collected by a Spectra Max 340 absorbance microplate reader. The compounds were tested in duplicate with nine serial concentrations (3.16-fold titrations with 198 μM as the highest concentration), and the data were analyzed by XLfit software.

[2] = tested on: CCRF-CEM; conditions: Homo sapiens, 72 h; for Emax: read-out: MI%; for CC50: read-out: LC50
Experimental: as §1

[3] = tested on: HEL92.1.7; conditions: for MI%: HEL92.1.7, maximum inhibitory effect over concentration range; for CC50: Homo sapiens, HEL 92.1.7, 72 h, read-out: LC50
Experimental: as §1

[4] = tested on: HL-60; conditions: Homo sapiens; for Emax: read-out: MI%; for CC50: read-out: LC50
Experimental: as §1

[5] = tested on: HS445; conditions: for MI%: HS445, maximum inhibitory effect over concentration range; for CC50: Homo sapiens, Hs 445, 72 h, read-out: LC50
Experimental: as §1

[6] = tested on: HT29; conditions: for MI%: HT29, maximum inhibitory effect over concentration range; for CC50: Homo sapiens, HT-29, 72 h, read-out: lC50
Experimental: as §1

[7] = tested on: HepG2; conditions: Homo sapiens; for Emax: read-out: MI%; for CC50: read-out: LC50
Experimental: as §1

[8] = tested on: Jurkat; conditions: for CC50: Homo sapiens, 72 h, read-out: LC50; for CC50 / MI%: Jurkat; for MI%: maximum inhibitory effect over concentration range
Experimental: as §1

[9] = tested on: K562; conditions: Homo sapiens; for Emax: read-out: MI%; for CC50: read-out: LC50
Experimental: as §1

[10] = tested on: KG-1; conditions: Homo sapiens, KG-1, 72 h, read-out: LC50
Experimental: as §1

[11] = tested on: MCF-7; conditions: Homo sapiens, MCF7, 72 h; for CC50: read-out: LC50; for Emax: read-out: MI%
Experimental: as §1

[12] = tested on: MIA PaCa-2; conditions: for CC50: Homo sapiens, MIA PaCa-2, 72 h, read-out: LC50; for MI%: MIA PaCa-2, maximum inhibitory effect over concentration range
Experimental: as §1

[13] = tested on: MOLT-4; conditions: Homo sapiens; for Emax: read-out: MI%; for CC50: read-out: LC50
Experimental: as §1

[14] = tested on: MV4-11; conditions: for CC50: Homo sapiens, MV4-11, 72 h, read-out: LC50; for MI%: MV4-11, maximum inhibitory effect over concentration range
Experimental: as §1

[15] = tested on: NCI-H929; conditions: for CC50: Homo sapiens, NCI-H929, 72 h, read-out: LC50; for MI%: NCI-H929, maximum inhibitory effect over concentration range
Experimental: as §1

[16] = tested on: RL; conditions: for CC50: Homo sapiens, 72 h, read-out: LC50; for MI%: maximum inhibitory effect over concentration range
Experimental: as §1

[17] = tested on: RPMI-8226; conditions: for CC50: Homo sapiens, RPMI-8226, 72 h, read-out: LC50; for MI%: RPMI-8226, maximum inhibitory effect over concentration range
Experimental: as §1

[18] = tested on: SW620; conditions: for CC50: Homo sapiens, SW-620, 72 h, read-out: LC50; for MI%: SW620, maximum inhibitory effect over concentration range
Experimental: as §1

[19] = tested on: THP-1; conditions: for CC50: Homo sapiens, THP-1, 72 h, read-out: LC50; for MI%: THP-1, maximum inhibitory effect over concentration range
Experimental: as §1

[20] = tested on: Z138; conditions: for CC50: Homo sapiens, Z-138, 72 h, read-out: LC50; for MI%: Z138, maximum inhibitory effect over concentration range
Experimental: as §1

Row | SMILES | MI% [1] | CC50 [1] | CC50 [2] | MI% [3] | CC50 [3] | CC50 ([4]; HL-60, 72 h) | MI% [5] | CC50 [5] | MI% [6] | CC50 [6] | CC50 ([7]; HepG2, 72 h) | CC50 [8] | MI% [8] | CC50 ([9]; K562, 72 h) | CC50 [10] | CC50 [11] | CC50 [12] | MI% [12] | CC50 ([13]; MOLT-4, 72 h) | CC50 [14] | also measured
1 | Nc1ncnc2c1ncn2[C@@H]1O[C@H](CO)C[C@H]1O [3′-dA, 3′-Deoxyadenosine, reference compound] | 22% | > 198 µM | > 198 µM | 88% | 68.9 µM | 76.8 µM | 2% | > 198 µM | 44% | > 198 µM | 142 µM | > 198 µM | 20% | 59.3 µM | 70.8 µM | 34.2 µM | > 198 µM | 35% | 152 µM | > 198 µM | Emax ([2]; maximum inhibitory effect over concentration range): 12%; Emax ([4]; 72 h, HL-60, maximum inhibitory effect over concentration range): 88%; Emax ([7]; 72 h, HepG2, maximum inhibitory effect over concentration range): 66%; Emax ([9]; 72 h, K562, maximum inhibitory effect over concentration range): 88%; Emax ([11]; MCF-7, maximum inhibitory effect over concentration range): 78%; Emax ([13]; 72 h, MOLT-4, maximum inhibitory effect over concentration range): 52%; MI% [14]: 1%; CC50 [15]: > 198 µM; MI% [15]: 24%; CC50 [16]: > 198 µM; MI% [16]: 17%; CC50 [17]: > 198 µM; MI% [17]: 1%; CC50 [18]: > 198 µM; MI% [18]: 10%; CC50 [19]: > 198 µM; MI% [19]: –3%; CC50 [20]: 12.2 µM; MI% [20]: 95%
2 | C[C@H](NP(=O)(OC[C@@H]1C[C@@H](O)[C@H](n2cnc3c(N)ncnc32)O1)Oc1ccccc1)C(=O)OCc1ccccc1 (stereo partly drawn) [Compound 7a, (Rp)- and (Sp)-3′-Deoxyadenosine 5′-O-phenyl-(benzoxy-L-alaninyl)-phosphate] | 81% | 23.6 µM | 2.36 µM | 100% | 8.07 µM | 17.8 µM | 98% | 30.5 µM | 93% | 13.4 µM | 18.7 µM | 1.44 µM | 100% | 6.1 µM | 17.4 µM | 3.07 µM | 6.85 µM | 96% | 0.51 µM | 2.1 µM | Emax [2]: 100%; Emax ([4]; HL-60, 72 h): 97%; Emax ([7]; HepG2, 72 h): 76%; fold more active than 3′-dA ([8]; Jurkat cell line, from LC50): approximately 200 fold; Emax ([9]; K562, 72 h): 92%; Emax [11]: 94%; Emax ([13]; MOLT-4, 72 h): 98%; MI% [14]: 99%; CC50 [15]: 6.07 µM; MI% [15]: 100%; CC50 [16]: 3 µM; MI% [16]: 93%; CC50 [17]: 14.7 µM; MI% [17]: 96%; CC50 [18]: 24.9 µM; MI% [18]: 85%; CC50 [19]: 65.5 µM; MI% [19]: 74%; CC50 [20]: 27 µM; MI% [20]: 95%
3 | CCOC(=O)CCc1ccccc1OP(=O)(N[C@@H](C)C(=O)OCc1ccccc1)OC[C@@H]1C[C@@H](O)[C@H](n2cnc3c(N)ncnc32)O1 (stereo partly shown) [Compound 7e] | 78% | 60.9 µM | 40.1 µM | 99% | 14.5 µM | 78.5 µM | 92% | 42.7 µM | 89% | 25.2 µM | 96.1 µM | 4.75 µM | 100% | 175 µM | 102 µM | 15.8 µM | 12.1 µM | 101% | 12.6 µM | 3.27 µM | Emax [2]: 90%; Emax ([4]; HL-60, 72 h): 74%; Emax ([7]; HepG2, 72 h): 59%; Emax ([9]; K562, 72 h): 61%; Emax [11]: 78%; Emax ([13]; MOLT-4, 72 h): 97%; MI% [14]: 100%; CC50 [15]: 7.57 µM; MI% [15]: 100%; CC50 [16]: 7.26 µM; MI% [16]: 90%; CC50 [17]: 31.1 µM; MI% [17]: 106%; CC50 [18]: 43.4 µM; MI% [18]: 90%; CC50 [19]: 36.7 µM; MI% [19]: 100%; CC50 [20]: 68.2 µM; MI% [20]: 76%
